Molecules are shown by their SMILES.

T1 sequence (P23977 whole entry): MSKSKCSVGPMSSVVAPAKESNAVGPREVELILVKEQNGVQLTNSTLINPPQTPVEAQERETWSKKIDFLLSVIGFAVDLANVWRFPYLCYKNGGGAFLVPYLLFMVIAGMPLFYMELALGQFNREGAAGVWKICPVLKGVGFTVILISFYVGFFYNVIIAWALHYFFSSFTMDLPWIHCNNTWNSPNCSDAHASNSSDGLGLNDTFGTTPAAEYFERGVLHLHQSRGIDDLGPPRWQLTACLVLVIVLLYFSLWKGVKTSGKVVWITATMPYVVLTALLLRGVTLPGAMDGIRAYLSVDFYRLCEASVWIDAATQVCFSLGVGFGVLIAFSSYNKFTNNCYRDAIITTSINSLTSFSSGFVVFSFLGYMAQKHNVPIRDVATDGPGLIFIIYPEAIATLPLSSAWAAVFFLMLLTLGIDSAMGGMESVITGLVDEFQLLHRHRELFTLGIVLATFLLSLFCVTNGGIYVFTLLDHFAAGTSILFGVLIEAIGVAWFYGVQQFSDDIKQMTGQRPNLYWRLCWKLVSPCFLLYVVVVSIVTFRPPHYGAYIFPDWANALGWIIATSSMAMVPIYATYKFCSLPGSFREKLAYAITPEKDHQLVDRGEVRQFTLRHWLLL
T2 sequence (P31652 whole entry): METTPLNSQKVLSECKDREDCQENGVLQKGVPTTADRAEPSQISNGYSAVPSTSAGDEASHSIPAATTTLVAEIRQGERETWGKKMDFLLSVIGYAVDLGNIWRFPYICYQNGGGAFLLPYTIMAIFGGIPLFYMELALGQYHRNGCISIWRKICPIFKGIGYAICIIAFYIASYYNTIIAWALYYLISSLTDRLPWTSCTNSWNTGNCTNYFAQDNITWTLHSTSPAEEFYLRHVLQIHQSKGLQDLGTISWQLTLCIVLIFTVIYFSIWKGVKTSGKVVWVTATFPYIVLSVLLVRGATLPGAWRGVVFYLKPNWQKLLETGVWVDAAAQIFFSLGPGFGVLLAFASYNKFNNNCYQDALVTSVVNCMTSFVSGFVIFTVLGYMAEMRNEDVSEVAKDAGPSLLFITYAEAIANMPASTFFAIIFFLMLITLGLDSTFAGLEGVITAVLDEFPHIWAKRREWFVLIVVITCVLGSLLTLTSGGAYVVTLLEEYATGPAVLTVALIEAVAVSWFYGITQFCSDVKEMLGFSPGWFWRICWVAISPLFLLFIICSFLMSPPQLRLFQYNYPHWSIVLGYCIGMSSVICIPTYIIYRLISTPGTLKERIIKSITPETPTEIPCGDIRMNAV

The subject of one assay is tetrabenazine induced ptosis. As to the kind of experiment: Tetrabenazine ptosis antagonism. In kind it is in vivo. The conditions noted are these: Mus musculus, ip, 0.5 h; i.p., mice; tetrabenazine 40 mg/kg i.p. 30 min after test substance. The method, then:
For insoluble substances the doses 0, 1/8, 1/32 and 1/128 of "i.^p. LD50" are used. 3 mice are used for each dose level. Thirty minutes after administration of test substance, tetrabenazine, 40 mg/kg, is injected i.p. Ptosis is evaluated 30 minutes after administration of tetrabenazine, the following rating scale being used: 0 = normal eyes, 1=1/4 closed eyes, 2 = 1/2 closed eyes, 3 = 3/4 closed eyes and 4 = completely closed eyes. Ptosis is evaluated 30 seconds after tilting the cage 3 times. The tilting is carried out in such a way that the animals slide along the floor of the cage.
The results are recorded as % inhibition of ptotic score calculated on the basis of the score of the control group. If ptotic score for the control group is < 10 the test is rejected and another is performed. The registration can also be done as an on line procedure.
Consider `CSc1ccc2c(c1)[C@H](N(C)C)C[C@H]2c1ccc(F)cc1` (relative stereo) [Lu 19-016-c], for which the 50% effect level (ED50) was put at a dose of 35 µmol/kg.
The compound `CN(C)[C@@H]1C[C@@H](c2ccc(N)cc2)c2ccc(F)cc21` (relative stereo) [Lu 19-021] showed a median effective dose (ED50) of 9 µmol/kg.
`Cc1ccc2c(c1)C(N(C)C)CC2c1ccc(F)cc1` (centres unmarked) [Lu 18-119]: it took a dose of 45 µmol/kg to reach the 50% effect level (ED50).
The compound `CN(C)C1CC(c2ccc(Cl)c(Cl)c2)c2ccccc21` (centres unmarked) [Lu 18-122-c] registered an ED50 of 14 µmol/kg.
Compound `CN(C)C1CC(c2ccc(Cl)cc2Cl)c2ccccc21` (centres unmarked) [Lu 18-137-c] had a median effective dose (ED50) of 23 µmol/kg.
Same read-out and setting: in the case of `CN(C)C1CC(c2ccc(F)cc2)c2ccc(F)cc21` (centres unmarked) [Lu 18-147] it was above 147 µmol/kg; in that of `CN(C)C1CC(c2ccc(F)cc2)c2ccc(C(F)(F)F)cc21` (centres unmarked) [Lu 18-150-c], above 111 µmol/kg.
Still for that read-out and setting: the same measure for `CSc1ccc2c(c1)C(N(C)C)CC2c1ccc(F)cc1` (centres unmarked) [Lu 19-017-c]: 27 µmol/kg; for `CN(C)C1CC(c2ccccc2)c2ccccc21` (centres unmarked) [Lu 19-025-c, reference compound]: above 143 µmol/kg; for `NC1CC(c2ccc(Cl)c(Cl)c2)c2ccccc21` (centres unmarked) [Lu 19-030-o]: 16 µmol/kg.
The same measure, in the same setting: the same measure for `CN(C)C1CC(O)(c2ccc(Cl)c(Cl)c2)c2ccccc21` (centres unmarked) [Lu 19-034, N,N-Dimethyl-3-(3,4-dichlorophenyl)-3-hydroxy-1-indanamine]: 9 µmol/kg.

Another assay concerns potentiation of 5-HTP. As to the kind of experiment: 5-HTP potentiation (5-HTP syndrome). The class given is in vivo. The conditions noted are these: Mus musculus, ip, 0.5 h; i.p., mice; 5-HTP 100 mg/kg i.v. 30 min after test substance; read-out: 5-HTP potentation,ED50. On the procedure:
The test substance is given i.p. or p.o. in the doses 10, 10, 2.5, 0.63 and 0 mg/kg. Three mice are used for each dose level. One of the groups on the highest dose is used as control of the compounds own effect. […] Thirty minutes after administration of test substance, 5-HTP, 100 mg/kg i.v. is given (injection time 5-10 sec.). After this 5-HTP dose the animals remain unaffected. If the animals have been pretreated with a substance, which inhibits the re-uptake of 5-HT, a 5-HTP syndrome will occur. This is characterized by the following symptoms: 1) excitation, 2) tremor, and 3) abduction of the hind limbs.
After the administration of 5-HTP the animals are observed for 15 minutes and each animal is given one point for each symptom present. Thus, the maximal score for a group consisting of 3 mice is 9.
The results are stated as fractions: 0/9, 1/9, 2/9 ..... 8/9, 9/9, where 0, 1, 2 ..... 8, 9 are the number of points per group after the dose in question.
Take `CSc1ccc2c(c1)[C@H](N(C)C)C[C@H]2c1ccc(F)cc1` (relative stereo) [Lu 19-016-c]: the ED50 turned out to be 39 µmol/kg.
The same measure, in the same setting: the same measure for `CN(C)[C@@H]1C[C@@H](c2ccc(N)cc2)c2ccc(F)cc21` (relative stereo) [Lu 19-021]: 15 µmol/kg; for `Cc1ccc2c(c1)C(N(C)C)CC2c1ccc(F)cc1` (centres unmarked) [Lu 18-119]: above 37 µmol/kg.
The same measure, in the same setting: the same measure for `CN(C)C1CC(c2ccc(Cl)c(Cl)c2)c2ccccc21` (centres unmarked) [Lu 18-122-c]: 10 µmol/kg.
Take `CN(C)C1CC(c2ccc(Cl)cc2Cl)c2ccccc21` (centres unmarked) [Lu 18-137-c]: the median effective dose (ED50) turned out to be 19 µmol/kg.
On the same count and under the same terms, the same measure for `CN(C)C1CC(c2ccc(F)cc2)c2ccc(F)cc21` (centres unmarked) [Lu 18-147]: 21 µmol/kg; for `CN(C)C1CC(c2ccc(F)cc2)c2ccc(C(F)(F)F)cc21` (centres unmarked) [Lu 18-150-c]: 101 µmol/kg; for `CSc1ccc2c(c1)C(N(C)C)CC2c1ccc(F)cc1` (centres unmarked) [Lu 19-017-c]: 23 µmol/kg.
Same read-out and setting: the same measure for `CN(C)C1CC(c2ccccc2)c2ccccc21` (centres unmarked) [Lu 19-025-c, reference compound]: above 36 µmol/kg.
Same read-out and setting: the same measure for `NC1CC(c2ccc(Cl)c(Cl)c2)c2ccccc21` (centres unmarked) [Lu 19-030-o]: above 27 µmol/kg; for `CN(C)C1CC(O)(c2ccc(Cl)c(Cl)c2)c2ccccc21` (centres unmarked) [Lu 19-034, N,N-Dimethyl-3-(3,4-dichlorophenyl)-3-hydroxy-1-indanamine]: 11 µmol/kg.

The next assay has as its target T1, ^3H-DA uptake in striatal synaptosomes (Rattus norvegicus, UniProt P23977).
T1 construct: the two corpura striata are dissected out and gently homogenized; from tissue; host or cells: rat corpus striatum, synaptosomal P2 fraction
Description: biochemical. The class given is biochemical, Rats. Conditions: rat striatal synaptosomes, 3H-DA 12.5 nM; read-out: Uptake Inhibition IC50 DA. The method, then:
^3H-DA uptake in striatal synaptosomes in vitro.
(§1) 0.32 M sucrose containing 1 mM Nialamide
Krebs-Ringer-phosphate buffer, pH 7.4
3,4-dihydroxyphenylethylamine [ethyl-1-^3H(N)] = ^3H-DA, spc. act. app. 15 Ci/mmol, New England Nuclear
(§2) Thomas Tissue Grinder, clearance 0.004-0.006 inch.
Rats are killed by a blow to their head, exsanguinated and their brains removed. The brain is placed on a precooled glassplate, and the two corpura striata are dissected out and gently homogenized in 40 volumes of ice cold 0.32 M sucrose containing 1 mM of nialamide using a hand homogenizer with teflon pestle. The P2-fraction (synaptosomal fraction) is obtained by centrifugation (600 g, 10 min., 25000 g, 55 min. 4 °C) and suspended in 40 volumes of a modified Krebs-Ringer-phosphate buffer, pH 7.4. To 200µl of the synaptosomal fraction on ice are added 3700 µl modified Krebs-Ringer-phosphate buffer - containing test compounds. After a preincubation at 37°C for 5 min. […] The incubation is terminated by filtering the samples under vacuum through Millipore filters with a wash of 5 ml buffer containing 10 µM of unlabelled DA. After solubilizing the filters in 1 ml of cellosolve the radioactivity is determined by liquid scintillation counting after the addition of 10 ml of Insta-Gel. The unspecific binding of ^3H-DA is determined by incubating control samples on ice instead of at 37 °C.
All experiments are performed in ttriplicate.
The mean of all control samples and ice samples are calculated.
Turning to `CSc1ccc2c(c1)[C@H](N(C)C)C[C@H]2c1ccc(F)cc1` (relative stereo) [Lu 19-016-c], the half-inhibitory concentration (IC50) is 170 nM.
For the compound `CN(C)[C@@H]1C[C@@H](c2ccc(N)cc2)c2ccc(F)cc21` (relative stereo) [Lu 19-021], the IC50 was 190 nM.
Still for that read-out and setting: in the case of `Cc1ccc2c(c1)C(N(C)C)CC2c1ccc(F)cc1` (centres unmarked) [Lu 18-119] it was 71 nM; in that of `CN(C)C1CC(c2ccc(Cl)c(Cl)c2)c2ccccc21` (centres unmarked) [Lu 18-122-c], 27 nM; in that of `CN(C)C1CC(c2ccc(Cl)cc2Cl)c2ccccc21` (centres unmarked) [Lu 18-137-c], 860 nM.
Still for that read-out and setting: the same measure for `CN(C)C1CC(c2ccc(F)cc2)c2ccc(F)cc21` (centres unmarked) [Lu 18-147]: 440 nM; for `CN(C)C1CC(c2ccc(F)cc2)c2ccc(C(F)(F)F)cc21` (centres unmarked) [Lu 18-150-c]: 340 nM; for `CSc1ccc2c(c1)C(N(C)C)CC2c1ccc(F)cc1` (centres unmarked) [Lu 19-017-c]: 150 nM.
Same read-out and setting: in the case of `NC1CC(c2ccc(Cl)c(Cl)c2)c2ccccc21` (centres unmarked) [Lu 19-030-o] it was 7.4 nM; in that of `CN(C)C1CC(O)(c2ccc(Cl)c(Cl)c2)c2ccccc21` (centres unmarked) [Lu 19-034, N,N-Dimethyl-3-(3,4-dichlorophenyl)-3-hydroxy-1-indanamine], 130 nM.

Still in this assay, the particulars now being: read-out: Uptake Inhibition IC50 DA.
For the compound `CN(C)C1CC(c2ccccc2)c2ccccc21` (centres unmarked) [Lu 19-025-c, reference compound], the IC50 turned out to be 340 nM.

The next assay addresses T2, ^3H-5-HT uptake in synaptosomes (Rattus norvegicus, UniProt P31652).
T2 construct: Rest of the brain is gently homogenized (glass teflon homogenizer); from tissue; host or cells: rat brain without cerebellum, pons and medulla oblongata, synaptosomal P2 fraction
As to the kind of experiment: Inhibition of 3H-5-HT uptake in synaptosomes in vitro. The class given is biochemical, Rats.
Details: not given
On the procedure: Inhibition of ^3H-5-HT uptake in synaptosomes in vitro.
as §1
Krebs-Ringer-Phosphate buffer, pH 7.4
Millipore filters (HAWPO 2500, 0.45 µ)
5-hydroxy [G-^3H] tryptamine creatinine sulphate = ^3H-5-HT, spc. act. app. 10 Ci/mmol, The Radiochemical Centre, Amersham.
as §2
Rats are killed by a blow on the head and exsanguinated. The brain is quickly removed, rinsed for blood and placed on a cold plate. The cerebellum, pons and medulla oblongata are removed. Rest of the brain is gently homogenized (glass teflon homogenizer) in 40 volumes of ice cold 0.32 M of sucrose containing 1 mM of nialamide. The P2 fraction (synaptosomal fraction) is obtained by centrifugation (600 g, 10 min. and 25000 g, 55 min., 4°C) and suspended in 40 volumes of a modified Krebs-Ringer-Phosphate buffer, pH 7.4.
To 200µl of the synaptosomal suspension on ice are added 3700 µl modified Krebs-Ringer-phosphate buffer, pH 7.4, containing test substances. After preincubation at 37°C for 5 min., 100 µl of ^3H-5-HT (final concentration in the samples = 10 nM) are added and the samples are incubated for 10 min. at 37 °C. The incubation is terminated by filtering the samples under vacuum through Millipore filters with a wash of 5 ml buffer containing 10 µM of unlabelled 5-HT. After solubilizing the filters in I ml of cellosolve, 10 ml of Instagel are added, and the radioactivity is determined by liquid and scintillation counting. The unspecific binding and passive transport of ^3H-5-HT is determined by incubating control samples on ice instead of at 37°C. All experiments are performed in triplicate. The mean of all control samples are calculated.
The IC50- values are determined as the concentrations, at which the uptake are 50 per cent of the uptake in control sample -uptake in ice samples.
With `CN(C)C1CC(O)(c2ccc(Cl)c(Cl)c2)c2ccccc21` (centres unmarked) [Lu 19-034, N,N-Dimethyl-3-(3,4-dichlorophenyl)-3-hydroxy-1-indanamine], the IC50 was 1.7 nM.

The assay is the same for the next values; noted with them: rat brain synaptosomes, 3H-5-HT 10 nM; read-out: Uptake Inhibition IC50 5-HT.
In the case of `CSc1ccc2c(c1)[C@H](N(C)C)C[C@H]2c1ccc(F)cc1` (relative stereo) [Lu 19-016-c], the IC50 was 4.5 nM.
Same read-out and setting: the same measure for `CN(C)[C@@H]1C[C@@H](c2ccc(N)cc2)c2ccc(F)cc21` (relative stereo) [Lu 19-021]: 330 nM.
`Cc1ccc2c(c1)C(N(C)C)CC2c1ccc(F)cc1` (centres unmarked) [Lu 18-119]: the half-inhibitory concentration (IC50) turned out to be 1.4 nM.
Still for that read-out and setting: the same measure for `CN(C)C1CC(c2ccc(Cl)c(Cl)c2)c2ccccc21` (centres unmarked) [Lu 18-122-c]: 0.37 nM; for `CN(C)C1CC(c2ccc(Cl)cc2Cl)c2ccccc21` (centres unmarked) [Lu 18-137-c]: 0.03 nM; for `CN(C)C1CC(c2ccc(F)cc2)c2ccc(F)cc21` (centres unmarked) [Lu 18-147]: 1.2 nM.
The same measure, in the same setting: the same measure for `CN(C)C1CC(c2ccc(F)cc2)c2ccc(C(F)(F)F)cc21` (centres unmarked) [Lu 18-150-c]: 4.3 nM.
Still for that read-out and setting: the same measure for `CSc1ccc2c(c1)C(N(C)C)CC2c1ccc(F)cc1` (centres unmarked) [Lu 19-017-c]: below 1 nM; for `CN(C)C1CC(c2ccccc2)c2ccccc21` (centres unmarked) [Lu 19-025-c, reference compound]: 9.5 nM; for `NC1CC(c2ccc(Cl)c(Cl)c2)c2ccccc21` (centres unmarked) [Lu 19-030-o]: 15 nM.

The values above are taken from EP0076669A1, “Novel 3-phenyl-1-indanamines, pharmaceutical compositions and methods of preparation” (KEFALAS A/S, priority 1981, dated 1983).
